Data: EP4470536A1, “COMPOUND FOR USE IN TREATING FIBRODYSPLASIA OSSIFICANS PROGRESSIVA (FOP)” (Queen's University At Kingston, priority 2023, dated 2024)

Tests used:
ectopic bone formation = assay: Surgical mouse model of heterotopic ossification (rhBMP2-soaked collagen disk), micro-CT; assay type: in vivo, CD-1 mouse; conditions: for Mean bone volume (mm^3) / percent change in HO volume from vehicle mean (%): oral gavage, 13 days, Day 14
Experimental: Heterotopic ossification (HO) driven by Bone Morphogenetic Protein (BMP) signaling has been used as a surrogate model for testing the effectiveness of drugs for treating Fibrodysplasia Ossificans Progressiva (FOP) (see, for example, Shimono K., et al. (2011). Nat Med 17, 454-460.). Collagen disks of 1mm in diameter were punched from a thin collagen foam matrix (Avitene™ Ultrafoam™ Collagen Hemostat product #1050050 lot #WBDP0038, from BD, Franklin Lakes, NJ, USA). Disks were impregnated with 1µg total of recombinant human BMP-2 (GenScript, Piscataway, NJ, USA, catalog #Z02913, lot #P50031712) on the day of surgery (5µl of 200ng/µL BMP-2, reconstituted in 20mM acetic acid solution). The rhBMP2-soaked collagen disk was surgically implanted into a small pocket made in the left gastrocnemius muscle of a 6-8 week-old male CD-1 mouse. Beginning on the day following surgery, mice were administered varying doses of compound 1 by oral gavage once daily (QD) or twice daily (every 12h; BID) for 13 days. Doses administered were: vehicle (Corn oil, QD (5M) and BID (3M) dosing or 3% DMSO in Corn oil (2M)), compound 1 18 mg/kg BID, 18 mg/kg QD, 6 mg/kg BID, 4.5 mg/kg BID, and 2 mg/kg BID (6M per group). Palovarotene high and low doses were used as comparators (1.76 mg/kg (4M) and 0.88 mg/kg QD (6M)). The palovarotene high and low doses were selected based on a study for palovarotene (Inubushi, T., et al. (2018). "Palovarotene Inhibits Osteochondroma Formation in a Mouse Model of Multiple Hereditary Exostoses." J Bone Miner Res 33(4): 658-666.), using oral treatment of mice. The inventors also verified the dose selection based on pharmacokinetic (PK) data generated in-house for palovarotene IP (intraperitoneal) and PO (oral) treatment by using the doses for IP treatment from Lees-Shepard, J. B., et al. (2018).
At the study endpoint (Day 14: 16-30 hours after final compound treatment) left hindlimbs were removed and submitted to micro-CT (micro-computed tomography) imaging. Using this preclinical surgical model, the amount of resulting ectopic bone formation after 14 days was visualized for each of the treatment groups (Figure 6). The highly enhancing regions seen within the gastrocnemius muscle corresponded to the amount of ectopic bone formation generated at the site of collagen disk implantation, following 14 days of vehicle or drug treatment.
The hindlimbs obtained in Example 6 above were submitted to micro-CT imaging. CT images were acquired using a VECTor^4CT pre-clinical scanner (MILabs B.V., Utrecht, Netherlands) equipped with a cone beam X-ray CT system. Scans were carried out with an acceleration voltage of 50 kVp and an X-ray tube current of 430 µA in accurate focus mode to obtain 3600 projections over a 360° scan. With a 40 ms exposure time per step, the total scan procedure took about 5 minutes with an estimated radiation dose of 3077 mGy. CT images were consequently processed using MILabs reconstruction software implementing a voxel size of 20 µm and a Hann projection filter of 25 µm to generate 3-dimensional CT images. For quantification, CT images were converted to DICOM® files using PMOD 3.9 software (PMOD Technologies Ltd., Zurich, Switzerland) for rendering using RadiAnt DICOM Viewer 4.2 software (Medixant, Poznań, Poland). The region-of-interest for all hindlimbs, reconstructed from DICOM files, was defined by outlining sites of ectopic ossification. Analysis of total ectopic bone volume was conducted via automated processes using the AnalyzePro software with the Bone Microarchitecture Analysis (BMA) add-on (AnalyzeDirect, Overland Park, Kansas). This software generates bone volume measurements from the defined area, as described by Bouxsein et al (2010). Journal of Bone and Mineral Research, 25(7), 1468-1486. Using this preclinical surgical model, the ability of compound 1 to inhibit HO (percentage from vehicle), as compared to palovarotene, was assessed and is shown in Figure 7 and in Table 1 below.

[1] = tested on: growth plates of juvenile FVB mice; assay: Long bone growth and growth plate toxicity in juvenile mice; conditions: for Mean femur length (cm) / Mean tibia length (cm): oral gavage, P14-P41, juvenile FVB mice; for Mean modified Crural index: ratio of tibia over femur length
Excerpt: A preclinical study was used to evaluate toxicity of various doses of compound 1 versus palovarotene on the growth plates of juvenile FVB mice following once daily (QD) or twice (BID) administration by oral gavage, over the juvenile development period, for 4 weeks (postnatal days 14-42 (P14-P42)). […] Resultant DICOM files were rendered in the RadiAnt viewer to obtain long bone measurements using the program's measuring tool (Figure 8A).

CYP26B1 = target: T1, CYP26B1 (Homo sapiens, UniProt Q9NR63); assay: Microsome-based inhibitor assay (microsomes from CYP26B1-transfected HeLa cells); assay type: biochemical; conditions: 5µg microsomal fraction, 1mM NADPH, 1 hour at 37°C; Figure 3
T1 sequence (Q9NR63 1-512): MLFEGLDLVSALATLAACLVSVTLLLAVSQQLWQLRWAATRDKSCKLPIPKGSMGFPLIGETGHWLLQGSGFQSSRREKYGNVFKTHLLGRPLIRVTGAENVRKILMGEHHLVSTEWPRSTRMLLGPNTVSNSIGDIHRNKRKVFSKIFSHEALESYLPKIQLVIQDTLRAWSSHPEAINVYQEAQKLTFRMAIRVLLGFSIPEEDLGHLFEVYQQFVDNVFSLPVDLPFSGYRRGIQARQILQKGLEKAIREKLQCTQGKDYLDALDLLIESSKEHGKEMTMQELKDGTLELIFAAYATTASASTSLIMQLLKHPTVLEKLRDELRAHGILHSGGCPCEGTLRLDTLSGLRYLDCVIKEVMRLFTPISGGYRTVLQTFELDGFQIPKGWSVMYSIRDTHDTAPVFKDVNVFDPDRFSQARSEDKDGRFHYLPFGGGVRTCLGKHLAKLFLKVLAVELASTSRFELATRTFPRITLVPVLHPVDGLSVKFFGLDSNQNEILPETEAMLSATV
Experimental: This assay used cell-free microsomes to measure the ability of a test compound to inhibit the metabolism of RA. Microsomal fractions were obtained from CYP26B1 cDNA stably transfected HeLa cells by differential centrifugation of cell lysates. Assays were carried out in 48-well plates containing 5µg of microsomal fraction in Microsome Assay Buffer, containing 0.04µCi [^3H]-RA in the presence of increasing concentrations of a test compound, as described above for the HeLa cell-based assay. Reactions were initiated by addition of 1mM NADPH, and carried out for 1 hour at 37°C. Reactions were stopped, retinoids extracted, and data were collected and analyzed as described above for the HeLa cell-based assay.

CC(C)(C)c1cccc(-c2cc3cc(/C=C/C(=O)O)ccc3[nH]2)c1 [Compound 1, (E)-3-(2-(3-(tert-butyl)phenyl)-1H-indol-5-yl)acrylic acid]
Mean bone volume (mm^3) (ectopic bone formation; 2mg/kg BID): 0.920 mm^3
percent change in HO volume from vehicle mean (%) (ectopic bone formation; 2mg/kg BID): -52.5%
Mean bone volume (mm^3) (ectopic bone formation; 4.5mg/kg BID): 1.205 mm^3
percent change in HO volume from vehicle mean (%) (ectopic bone formation; 4.5mg/kg BID): -37.8%
Mean bone volume (mm^3) (ectopic bone formation; 6mg/kg BID): 0.212 mm^3
percent change in HO volume from vehicle mean (%) (ectopic bone formation; 6mg/kg BID): -89.1%
Mean bone volume (mm^3) (ectopic bone formation; 18mg/kg BID): 0.035 mm^3
percent change in HO volume from vehicle mean (%) (ectopic bone formation; 18mg/kg BID): -98.2%
Mean bone volume (mm^3) (ectopic bone formation; 18mg/kg QD): 0.436 mm^3
percent change in HO volume from vehicle mean (%) (ectopic bone formation; 18mg/kg QD): -77.5%
ectopic bone formation (ectopic bone formation; 2 to 18 mg/kg, versus vehicle, 14 days): dose-dependent decrease in ectopic bone formation
Mean femur length (cm) ([1]; 3mg/kg BID): 1.38 ± 0.03 cm
Mean tibia length (cm) ([1]; 3mg/kg BID): 1.69 ± 0.04 cm
Mean modified Crural index ([1]; 3mg/kg BID): 1.23 ± 0.03
Mean femur length (cm) ([1]; 6mg/kg BID): 1.33 ± 0.11 cm
Mean tibia length (cm) ([1]; 6mg/kg BID): 1.53 ± 0.05 cm
Mean modified Crural index ([1]; 6mg/kg BID): 1.15 ± 0.05
Mean femur length (cm) ([1]; 10mg/kg BID): 1.34 ± 0.06 cm
Mean tibia length (cm) ([1]; 10mg/kg BID): 1.70 ± 0.04 cm
Mean modified Crural index ([1]; 10mg/kg BID): 1.27 ± 0.06
Mean femur length (cm) ([1]; 18mg/kg QD): 1.10 ± 0.09 cm
Mean tibia length (cm) ([1]; 18mg/kg QD): 1.54 ± 0.07 cm
Mean modified Crural index ([1]; 18mg/kg QD): 1.40 ± 0.06
disturbances to the growth of long bones and microarchitecture of the growth plates ([1]; at doses at least equally efficacious as palovarotene, Figures 8A, 8B, 9): not observed
IC50 (CYP26B1): 5.9 nM
